From PubChem BioAssay AID504575 (Southern Research Specialized Biocontainment Screening …, 2011)

system: MAGI cell cytotoxicity, 2% serum; experiment: viability loss in MAGI reporter cells – cell-based, CXCR4-tropic MAGI assay, 2% serum, set 2, cytotoxicity control for HIV-1 antiviral lead project, dose response (AID 504575)

SMILES | TC50 [µM]
COc1ccccc1Cn1c(O)cc2nn(-c3nc4ccccc4s3)c(=O)c-2c1C | 43.2
Cc1c2c(=O)n(-c3nc4ccccc4s3)nc-2cc(O)n1Cc1ccccc1Cl | 32.9
COc1ccc(Cn2c(O)cc3nn(-c4nc5ccccc5s4)c(=O)c-3c2C)cc1 | 41.1
Cc1c2c(=O)n(-c3nc4ccccc4s3)nc-2cc(O)n1CCc1ccc(O)cc1 | 20.5
COc1ccc(CCn2c(O)cc3nn(-c4nc5ccccc5s4)c(=O)c-3c2C)cc1 | 13.8
Cc1c2c(=O)n(-c3nc4ccccc4s3)nc-2cc(O)n1CCc1cccs1 | 74.8
Cc1c2c(=O)n(-c3nc4ccccc4s3)nc-2cc(O)n1CCC(C)C | 65
